Biological target: MC1R on B16/F10 murine melanoma cells (Mus musculus, UniProt Q01727)
Assay: In vitro competitive binding assay

MC1R on B16/F10 murine melanoma cells, sequence (Q01727 whole entry): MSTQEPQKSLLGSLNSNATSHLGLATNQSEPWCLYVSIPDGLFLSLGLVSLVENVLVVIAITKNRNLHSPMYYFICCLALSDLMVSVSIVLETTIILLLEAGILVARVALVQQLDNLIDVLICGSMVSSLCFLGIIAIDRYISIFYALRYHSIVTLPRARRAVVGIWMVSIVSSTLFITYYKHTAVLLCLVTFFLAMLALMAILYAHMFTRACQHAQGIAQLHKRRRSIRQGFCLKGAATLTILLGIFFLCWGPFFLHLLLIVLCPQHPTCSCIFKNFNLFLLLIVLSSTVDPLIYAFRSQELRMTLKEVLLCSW

`CSCC[C@H](NC(=O)[C@H](CO)NC(=O)[C@H](Cc1ccc(O)cc1)NC(=O)[C@H](CO)NC(=O)CN1CCN(CC(=O)O)CCN(CC(=O)O)CCN(CC(=O)O)CC1)C(=O)N[C@@H](CCC(=O)O)C(=O)N[C@@H](Cc1c[nH]cn1)C(=O)N[C@@H](Cc1ccccc1)C(=O)N[C@@H](CCCNC(=N)N)C(=O)N[C@@H](Cc1c[nH]c2ccccc12)C(=O)NCC(=O)N[C@@H](CCCCN)C(=O)N1CCC[C@H]1C(=O)N[C@H](C(N)=O)C(C)C` [DOTA-a-MSH] was tested, and the IC50 was 1.8 ± 0.3 nM.

Source: publication PMC3799893 (Recent results in cancer research. Fortschritte der …, 2013)
